Experimental findings from ChEMBL document CHEMBL1145739, “N-(3-phenylsulfonyl-3-piperidinoyl)-phenylalanine derivatives as potent, selective VLA-4 antagonists” (Bioorg Med Chem Lett, 2003) are described below.

The target in assay [1] is Integrin alpha-4/beta-1 (Homo sapiens, UniProt P05556+P13612). Description: Binding affinity towards VLA-4 (alpha4 beta-1) receptor in human Jurkat cells using [125I]VCAM-Ig as radioligand. The format is cell-based.
Assay [2] concerns the target T1, Integrin alpha-4/beta-7 (Homo sapiens, UniProt P13612+P26010).
T1 sequence (P13612 whole entry): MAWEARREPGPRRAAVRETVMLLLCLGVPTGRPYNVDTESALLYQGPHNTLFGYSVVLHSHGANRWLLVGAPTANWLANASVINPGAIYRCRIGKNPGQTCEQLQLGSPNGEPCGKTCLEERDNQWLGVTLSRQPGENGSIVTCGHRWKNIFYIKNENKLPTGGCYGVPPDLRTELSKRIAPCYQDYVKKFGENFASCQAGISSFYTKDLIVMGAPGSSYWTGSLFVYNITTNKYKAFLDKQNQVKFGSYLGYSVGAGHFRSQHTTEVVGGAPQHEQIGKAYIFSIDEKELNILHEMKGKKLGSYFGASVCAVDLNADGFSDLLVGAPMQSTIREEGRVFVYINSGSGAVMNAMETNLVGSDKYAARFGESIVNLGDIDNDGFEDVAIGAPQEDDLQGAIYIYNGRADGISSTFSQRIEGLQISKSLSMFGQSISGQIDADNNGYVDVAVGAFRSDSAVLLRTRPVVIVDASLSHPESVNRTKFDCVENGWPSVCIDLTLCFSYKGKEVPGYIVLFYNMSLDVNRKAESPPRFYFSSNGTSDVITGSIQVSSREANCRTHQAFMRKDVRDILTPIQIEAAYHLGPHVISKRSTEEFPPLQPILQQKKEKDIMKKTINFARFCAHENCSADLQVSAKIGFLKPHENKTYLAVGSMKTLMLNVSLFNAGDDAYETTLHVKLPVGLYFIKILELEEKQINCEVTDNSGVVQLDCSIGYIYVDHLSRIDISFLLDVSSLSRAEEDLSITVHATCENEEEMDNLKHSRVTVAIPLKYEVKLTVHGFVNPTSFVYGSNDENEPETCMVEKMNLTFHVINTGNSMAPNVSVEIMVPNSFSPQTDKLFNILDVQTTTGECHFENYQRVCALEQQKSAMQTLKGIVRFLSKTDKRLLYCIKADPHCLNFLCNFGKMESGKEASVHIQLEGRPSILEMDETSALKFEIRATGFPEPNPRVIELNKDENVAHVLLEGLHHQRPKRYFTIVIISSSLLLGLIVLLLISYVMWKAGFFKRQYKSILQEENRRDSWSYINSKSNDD
T1 sequence (P26010 whole entry): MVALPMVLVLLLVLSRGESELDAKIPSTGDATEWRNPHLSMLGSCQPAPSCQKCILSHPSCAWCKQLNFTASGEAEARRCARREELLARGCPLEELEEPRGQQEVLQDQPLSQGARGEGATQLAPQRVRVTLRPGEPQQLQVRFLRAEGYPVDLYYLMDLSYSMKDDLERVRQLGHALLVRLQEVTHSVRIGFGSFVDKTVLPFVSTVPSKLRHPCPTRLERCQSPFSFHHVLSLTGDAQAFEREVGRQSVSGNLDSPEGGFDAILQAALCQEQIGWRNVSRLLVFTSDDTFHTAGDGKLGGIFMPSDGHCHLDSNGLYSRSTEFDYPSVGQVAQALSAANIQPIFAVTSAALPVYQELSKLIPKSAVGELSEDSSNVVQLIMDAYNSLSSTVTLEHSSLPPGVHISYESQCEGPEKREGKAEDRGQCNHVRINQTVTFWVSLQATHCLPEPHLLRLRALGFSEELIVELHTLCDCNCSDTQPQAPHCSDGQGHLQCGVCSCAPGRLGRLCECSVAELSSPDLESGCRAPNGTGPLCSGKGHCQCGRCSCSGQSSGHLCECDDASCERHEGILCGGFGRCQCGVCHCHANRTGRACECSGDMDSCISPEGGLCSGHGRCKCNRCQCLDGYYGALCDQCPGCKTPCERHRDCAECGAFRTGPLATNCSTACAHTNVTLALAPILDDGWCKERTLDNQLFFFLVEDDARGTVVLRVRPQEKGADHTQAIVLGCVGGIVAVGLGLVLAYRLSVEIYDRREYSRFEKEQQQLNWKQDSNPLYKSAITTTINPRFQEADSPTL
Kind of assay: Binding affinity towards […] receptor in human RPMI-8866 B-cell line using [125I]MAdCAM-Ig as radioligand.

Each structure is given as a SMILES string. pIC50: −log10 of the molar value.

Chain of Integrin alpha-4/beta-1 (P05556 whole entry, one chain of several): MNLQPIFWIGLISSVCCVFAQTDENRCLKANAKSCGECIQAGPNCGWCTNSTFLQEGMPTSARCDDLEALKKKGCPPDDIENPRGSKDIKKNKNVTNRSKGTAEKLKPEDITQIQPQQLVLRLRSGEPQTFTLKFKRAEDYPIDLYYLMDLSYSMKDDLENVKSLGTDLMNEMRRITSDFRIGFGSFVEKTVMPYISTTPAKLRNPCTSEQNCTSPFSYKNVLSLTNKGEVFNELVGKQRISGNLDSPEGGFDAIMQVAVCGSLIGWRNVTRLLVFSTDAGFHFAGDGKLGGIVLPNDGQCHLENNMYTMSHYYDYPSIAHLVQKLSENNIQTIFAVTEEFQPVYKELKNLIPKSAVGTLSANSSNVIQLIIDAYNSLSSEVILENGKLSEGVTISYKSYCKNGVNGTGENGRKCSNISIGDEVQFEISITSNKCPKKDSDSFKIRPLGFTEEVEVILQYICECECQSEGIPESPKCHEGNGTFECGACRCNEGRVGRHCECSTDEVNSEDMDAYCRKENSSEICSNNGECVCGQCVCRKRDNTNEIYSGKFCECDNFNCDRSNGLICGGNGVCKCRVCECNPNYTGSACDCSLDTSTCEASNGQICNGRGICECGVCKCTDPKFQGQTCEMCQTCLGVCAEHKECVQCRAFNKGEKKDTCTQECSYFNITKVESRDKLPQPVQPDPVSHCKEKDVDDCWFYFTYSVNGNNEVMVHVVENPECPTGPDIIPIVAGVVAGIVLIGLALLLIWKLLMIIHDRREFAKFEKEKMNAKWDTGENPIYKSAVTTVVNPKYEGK

`COc1cccc(OC)c1-c1ccc(C[C@H](NC(=O)C2(S(=O)(=O)c3cn(C)cn3)CCCNC2)C(=O)O)cc1` (some centres not stated): the pIC50 (commonly the IC50 on a negative log10 scale, so that one unit is a factor of ten) was 9.34 in assay [1] and 7.01 in assay [2].
Take `COc1cccc(OC)c1-c1ccc(C[C@H](NC(=O)C2(S(=O)(=O)c3cncn3C)CCCNC2)C(=O)O)cc1` (some centres not stated): the pIC50 in assay [1] is 9.85; in assay [2] it was 7.34.
For `COc1ccccc1-c1ccc(C[C@H](NC(=O)C2(S(=O)(=O)c3ccccc3)CCSCC2)C(=O)O)cc1`, in that order: 8.39 and 6.89.
Turning to `CCN1CCC(C(=O)N[C@@H](Cc2ccc(-c3ccccc3OC)cc2)C(=O)O)(S(=O)(=O)c2ccccc2)CC1`, the results for the pIC50 in assay [1] and in assay [2] were 7.51 and 5.91, respectively.
For `COc1ccccc1-c1ccc(C[C@H](NC(=O)C2(S(=O)(=O)c3ccccc3)CCS(=O)(=O)CC2)C(=O)O)cc1`, in that order: 8.89 and 7.15.
As for `COc1cccc(OC)c1-c1ccc(C[C@H](NC(=O)C2(S(=O)(=O)c3ccc(F)cc3)CCCC2)C(=O)O)cc1`, the pIC50 in assay [1] was 10.15; in assay [2], 8.30.
On to `COc1cccc(OC)c1-c1ccc(C[C@H](NC(=O)C2(S(=O)(=O)c3ccc(Br)cc3)CCCNC2)C(=O)O)cc1` (some centres not stated), for which the pIC50 is 9.72 in assay [1] and 7.03 in assay [2].
As for `COc1cccc(OC)c1-c1ccc(C[C@H](NC(=O)C2(S(C)(=O)=O)CCCNC2)C(=O)O)cc1` (some centres not stated), the pIC50 in assay [1] was 9.72; in assay [2] it was 7.68.
`O=C(O)[C@H](Cc1ccc(-c2ccccc2)cc1)NC(=O)C1(S(=O)(=O)c2ccccc2)Cc2ccccc2C1`: the pIC50 in assay [1] is 6.17; in assay [2] it was 5.13.
For `COc1ccccc1-c1ccc(C[C@H](NC(=O)C2(S(=O)(=O)c3ccc(F)cc3)CCCC2)C(=O)O)cc1`, the results for the pIC50 in assay [1] and in assay [2] were 9.57 and 7.40, respectively.
With `COc1ccccc1-c1ccc(C[C@H](NC(=O)C2(S(=O)(=O)c3ccccc3)CCNCC2)C(=O)O)cc1`, the pIC50 in assay [1] was 7.70; in assay [2] it was 5.72.
Take `COc1ccccc1-c1ccc(C[C@H](NC(=O)C2(S(=O)(=O)c3ccccc3)CCN(C)CC2)C(=O)O)cc1`: the negative-log IC50 (pIC50) was 8.52 in assay [1] and 5.70 in assay [2].
Consider `COc1ccccc1-c1ccc(C[C@H](NC(=O)C2(S(=O)(=O)c3ccccc3)CCCN(C)C2)C(=O)O)cc1` (some centres not stated), for which the pIC50 is 8.18 in assay [1] and 5.24 in assay [2].
For `COc1cccc(OC)c1-c1ccc(C[C@H](NC(=O)C2(S(=O)(=O)c3ccccc3)CCN(C)CC2)C(=O)O)cc1`, the negative logarithm of the IC50 (pIC50) was 8.96 in assay [1] and 6.33 in assay [2].
With `COc1cccc(OC)c1-c1ccc(C[C@H](NC(=O)C2(S(=O)(=O)c3ccccc3)CCOC2)C(=O)O)cc1` (some centres not stated), the pIC50 in assay [1] is 10.00; in assay [2] it was 8.28.
For `COc1cccc(OC)c1-c1ccc(C[C@H](NC(=O)C2(S(=O)(=O)c3ccccc3)CCSCC2)C(=O)O)cc1`, in that order: 9.66 and 8.30.
With `CCS(=O)(=O)C1(C(=O)N[C@@H](Cc2ccc(-c3ccccc3OC)cc2)C(=O)O)CCCC1`, the negative logarithm of the IC50 (pIC50) in assay [1] was 9.28; in assay [2] it was 7.24.
For the compound `COc1cccc(OC)c1-c1ccc(C[C@H](NC(=O)C2(S(=O)(=O)CCN3CCOCC3)CCCNC2)C(=O)O)cc1` (some centres not stated), the results for the pIC50 in assay [1] and in assay [2] were 9.17 and 6.59, respectively.
In the case of `COc1cccc(OC)c1-c1ccc(C[C@H](NC(=O)C2(S(=O)(=O)CCNCCCN(C)C)CCCNC2)C(=O)O)cc1` (some centres not stated), the pIC50 in assay [1] was 9.43; in assay [2], 6.75.
As to `COc1cccc(OC)c1-c1ccc(C[C@H](NC(=O)C2(S(=O)(=O)c3ccccc3)CCCCC2)C(=O)O)cc1`, the negative logarithm of the IC50 (pIC50) is 9.72 in assay [1] and 7.89 in assay [2].
In the case of `COc1ccccc1-c1ccc(C[C@H](NC(=O)C2(S(=O)(=O)c3ccccc3)CCOCC2)C(=O)O)cc1`, the pIC50 in assay [1] is 9.26; in assay [2], 6.82.
On to `COc1cccc(OC)c1-c1ccc(C[C@H](NC(=O)C2(S(=O)(=O)c3ccccc3)CCC2)C(=O)O)cc1`, for which the pIC50 in assay [1] is 9.77; in assay [2] it was 8.49.
As to `COc1cccc(OC)c1-c1ccc(C[C@H](NC(=O)C2(S(=O)(=O)c3cccc(Br)c3)CCCNC2)C(=O)O)cc1` (some centres not stated), the negative-log IC50 (pIC50) was 9.89 in assay [1] and 7.08 in assay [2].
On to `COc1cccc(OC)c1-c1ccc(C[C@H](NC(=O)C2(S(=O)(=O)Cc3ccccc3)CCCNC2)C(=O)O)cc1` (some centres not stated), for which the pIC50 in assay [1] was 9.11; in assay [2], 6.36.
Take `COc1ccccc1-c1ccc(C[C@H](NC(=O)C2(S(=O)(=O)c3ccccc3)CCC2)C(=O)O)cc1`: the pIC50 was 8.92 in assay [1] and 7.80 in assay [2].
For the compound `COc1ccccc1-c1ccc(C[C@H](NC(=O)C2(S(=O)(=O)Nc3ccccc3)CCCC2)C(=O)O)cc1`, the pIC50 in assay [1] was 7.82; in assay [2] it was 6.28.
With `COc1cccc(OC)c1-c1ccc(C[C@H](NC(=O)C2(S(=O)(=O)c3ccccc3)CCCC2)C(=O)O)cc1`, the pIC50 is 9.96 in assay [1] and 8.30 in assay [2].
For `CCN(CC)S(=O)(=O)C1(C(=O)N[C@@H](Cc2ccc(-c3ccccc3OC)cc2)C(=O)O)CCCC1`, the pIC50 in assay [1] is 9.01; in assay [2] it was 7.27.
For the compound `COc1cccc(OC)c1-c1ccc(C[C@H](NC(=O)C2(S(=O)(=O)c3ccccc3Br)CCCNC2)C(=O)O)cc1` (some centres not stated), the pIC50 in assay [1] is 9.82; in assay [2] it was 7.02.
For `COc1ccccc1-c1ccc(C[C@H](NC(=O)C2(S(=O)(=O)c3ccccc3)CCN(C(C)(C)C)CC2)C(=O)O)cc1`, in that order: 7.25 and 5.04.
On to `COc1cccc(OC)c1-c1ccc(C[C@H](NC(=O)C2(S(=O)(=O)c3ccccc3N3CCCC3)CCCNC2)C(=O)O)cc1` (some centres not stated), for which the pIC50 in assay [1] is 9.41; in assay [2], 6.41.
For `COc1cccc(OC)c1-c1ccc(C[C@H](NC(=O)C2(S(=O)(=O)c3ccc(N4CCCC4)cc3)CCCNC2)C(=O)O)cc1` (some centres not stated), in that order: 9.44 and 6.27.
Take `COc1ccccc1-c1ccc(C[C@H](NC(=O)C2(S(=O)(=O)c3ccccc3)CCCNC2)C(=O)O)cc1` (some centres not stated): the negative-log IC50 (pIC50) in assay [1] is 9.32; in assay [2] it was 6.21.
Take `COc1ccccc1-c1ccc(C[C@H](NC(=O)C2(S(=O)(=O)c3ccccc3)CCOC2)C(=O)O)cc1` (some centres not stated): the pIC50 in assay [1] is 9.11; in assay [2], 7.35.
As to `CCCCN1CCC(C(=O)N[C@@H](Cc2ccc(-c3ccccc3OC)cc2)C(=O)O)(S(=O)(=O)c2ccccc2)CC1`, the values for the pIC50 in assay [1] and in assay [2] were 7.29 and 5.04, respectively.
In turn, `CCCCCCCCS(=O)(=O)C1(C(=O)N[C@@H](Cc2ccc(-c3ccccc3)cc2)C(=O)O)CCCC1` had a pIC50 in assay [1] of 6.82.
For the compound `COc1ccccc1-c1ccc(C[C@H](NC(=O)C2(S(=O)(=O)c3ccccc3)CCN(c3ccccc3)CC2)C(=O)O)cc1`, the negative logarithm of the IC50 (pIC50) was 7.64 in assay [1] and 5.90 in assay [2].
Turning to `COc1ccccc1-c1ccc(C[C@H](NC(=O)C2(S(=O)(=O)C3CCCC3)CCCC2)C(=O)O)cc1`, the pIC50 is 8.92 in assay [1] and 6.83 in assay [2].
As to `COc1ccccc1-c1ccc(C[C@H](NC(=O)C2(S(=O)(=O)c3ccccc3)CC[S+]([O-])CC2)C(=O)O)cc1` (some centres not stated), the pIC50 is 8.36 in assay [1] and 6.50 in assay [2].
